Measured values published in ChEMBL document CHEMBL1158235, “Dendroamides, new cyclic hexapeptides from a blue-green alga. Multidrug-resistance reversing activity of dendroamide A” (J Nat Prod, 1996).
Activity calls are given as the source filed them. No cut-off for these calls is given here.

Experiments:
Format in all cases: cell-based
[1] = molecular target: T1, ATP-dependent translocase ABCB1 (Homo sapiens, UniProt P08183); assay: Inhibition of p-glycoprotein expressing human MCF7 cells assessed as [3H]vinblastine accumulation
T1 sequence (P08183 whole entry): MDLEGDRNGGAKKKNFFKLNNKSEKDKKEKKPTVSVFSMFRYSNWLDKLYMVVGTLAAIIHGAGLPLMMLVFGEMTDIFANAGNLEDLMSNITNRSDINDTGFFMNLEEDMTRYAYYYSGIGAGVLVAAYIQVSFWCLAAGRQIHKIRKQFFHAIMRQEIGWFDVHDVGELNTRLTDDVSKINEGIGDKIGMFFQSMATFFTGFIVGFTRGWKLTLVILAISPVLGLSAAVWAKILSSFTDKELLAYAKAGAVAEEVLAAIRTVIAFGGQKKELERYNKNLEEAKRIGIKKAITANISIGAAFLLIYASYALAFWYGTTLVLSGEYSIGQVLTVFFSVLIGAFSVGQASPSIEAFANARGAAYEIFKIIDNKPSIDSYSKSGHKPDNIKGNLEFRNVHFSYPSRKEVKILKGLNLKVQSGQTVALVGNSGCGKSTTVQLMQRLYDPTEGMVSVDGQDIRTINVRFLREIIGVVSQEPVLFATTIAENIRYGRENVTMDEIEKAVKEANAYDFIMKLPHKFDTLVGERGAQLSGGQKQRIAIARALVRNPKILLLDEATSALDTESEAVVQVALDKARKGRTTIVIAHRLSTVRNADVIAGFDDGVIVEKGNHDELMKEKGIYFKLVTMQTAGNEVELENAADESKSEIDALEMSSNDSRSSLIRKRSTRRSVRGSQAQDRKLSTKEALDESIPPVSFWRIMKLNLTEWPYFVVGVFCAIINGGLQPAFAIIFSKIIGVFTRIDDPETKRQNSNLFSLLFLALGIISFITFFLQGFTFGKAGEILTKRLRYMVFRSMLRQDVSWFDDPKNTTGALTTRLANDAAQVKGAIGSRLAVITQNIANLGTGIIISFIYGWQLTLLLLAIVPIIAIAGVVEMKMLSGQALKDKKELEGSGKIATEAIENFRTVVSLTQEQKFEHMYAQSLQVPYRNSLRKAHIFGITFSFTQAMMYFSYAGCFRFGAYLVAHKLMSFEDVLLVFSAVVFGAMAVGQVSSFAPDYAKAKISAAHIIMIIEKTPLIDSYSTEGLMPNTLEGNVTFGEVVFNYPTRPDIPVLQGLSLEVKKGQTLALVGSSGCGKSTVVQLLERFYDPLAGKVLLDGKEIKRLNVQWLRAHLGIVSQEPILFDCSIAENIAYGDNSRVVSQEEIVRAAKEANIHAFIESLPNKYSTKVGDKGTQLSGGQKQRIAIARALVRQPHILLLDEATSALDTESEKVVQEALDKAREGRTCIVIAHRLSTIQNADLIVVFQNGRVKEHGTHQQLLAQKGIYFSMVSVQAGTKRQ

[2] = molecular target: T1, ATP-dependent translocase ABCB1; assay: Inhibition of p-glycoprotein expressing human MCF7/ADR cells assessed as cell killing after 48 hrs by SRB binding assay in presence of 15M daunomycin; settings: nci/adr-res
[3] = molecular target: T1, ATP-dependent translocase ABCB1; assay: Inhibition of p-glycoprotein expressing human MCF7/ADR cells assessed as cell killing after 48 hrs by SRB binding assay in presence of 200 uM actinomycin D; settings: nci/adr-res
[4] = molecular target: T1, ATP-dependent translocase ABCB1; assay: Inhibition of p-glycoprotein expressing human MCF7/ADR cells assessed as cell killing after 48 hrs by SRB binding assay in presence of 4 uM cisplatin; settings: nci/adr-res
[5] = molecular target: T1, ATP-dependent translocase ABCB1; assay: Inhibition of p-glycoprotein expressing human MCF7/ADR cells assessed as increase in vinblastine sensitivity to cell killing at 0.6 uM after 48 hrs by SRB assay; settings: nci/adr-res
[6] = system: NCI/ADR-RES; assay: Displacement of [3H]azidopine from p-glycoprotein expressed in human MCF7/ADR cells assessed as photoaffinity labeling reduction at 0.5 uM; design: scale not given: the % may be the effect or the level left
[7] = system: MCF7/VP; assay: Inhibition of MRP expressing human MCF7/VP cells assessed as increase in vincristine-induced cytotoxicity at 5 to 10 uM after 48 hrs by SRB binding assay
[8] = system: MCF7/VP; assay: Inhibition of MRP expressed in human MCF7/VP cells assessed as increase in etoposide-induced cytotoxicity
[9] = system: MCF7/VP; assay: Inhibition of MRP expressed in human MCF7/VP cells assessed as increase in doxorubicin-induced cytotoxicity
[10] = system: MCF7/VP; assay: Inhibition of MRP expressed in human MCF7/VP cells assessed as increase in cisplatin-induced cytotoxicity
[11] = molecular target: T1, ATP-dependent translocase ABCB1; assay: Inhibition of p-glycoprotein expressing human MCF7/ADR cells assessed as [3H]vinblastine accumulation treated at 5 uM measured after 60 mins; settings: nci/adr-res, 1 h
[12] = molecular target: T1, ATP-dependent translocase ABCB1; assay: Inhibition of p-glycoprotein expressing human MCF7/ADR cells assessed as [3H]vinblastine accumulation treated at 20 uM measured after 60 mins; settings: nci/adr-res, 1 h
[13] = system: NCI/ADR-RES; assay: Displacement of [3H]azidopine from p-glycoprotein expressed in human MCF7/ADR cells assessed as photoaffinity labeling reduction at 10 uM; design: scale not given: the % may be the effect or the level left
[14] = system: MCF7/VP; assay: Inhibition of MRP expressed in human MCF7/VP cells assessed as increase in vincristine-induced cytotoxicity at 20 uM after 48 hrs by SRB binding assay

SMILES	Activity [1]	Activity [2]	Activity [3]	Activity [4]	Activity [5]	Activity [6]	Activity [7]	Activity [8]	Activity [9]	Activity [10]	Activity [11]	Activity [12]	Activity [13]	Activity [14]
Cc1oc2nc1C(=O)N[C@H](C(C)C)c1nc(cs1)C(=O)N[C@H](C)c1nc(cs1)C(=O)N[C@@H]2C [DENDROAMIDE A]	Not Active	Active	Active	Not Active	Active	50%	Active	Active	Active	inactive				
CSCC[C@H]1NC(=O)c2csc(n2)[C@@H](C)NC(=O)c2nc(oc2C)[C@@H](C)NC(=O)c2csc1n2 [DENDROAMIDE B]	Not Active	Not Active	Not Active	Not Active	Not Active	inactive					Not Active	Not Active	inactive	
Cc1oc2nc1C(=O)N[C@H](C)c1nc(cs1)C(=O)N[C@H](CC[S+](C)[O-])c1nc(cs1)C(=O)N[C@@H]2C (stereo partly specified) [DENDROAMIDE C]	Not Active	Not Active	Not Active	Not Active	Not Active	inactive					Not Active	Not Active	inactive	
COc1ccc(CCN(C)CCCC(C#N)(c2ccc(OC)c(OC)c2)C(C)C)cc1OC (stereo unspecified) [VERAPAMIL]	Not Active												50%	Active
